Experimental data as given in patent US8535897B2, “Assays for non-apoptotic cell death and uses thereof” (The Trustees of Columbia University in the City of New York, priority 2006, dated 2013).

How the values were obtained:
Format in all cases: cell-based, human
[1] = test system: cytochrome c; test: Cytochrome c release from mitochondria; conditions: BJ-TERT/LT/ST/RAS^V12; staurosporine 1 μM or erastin 20 μg/mL for 6 h
Description: BJ-TERT/LT/ST/RAS^V12 cells were seeded in polystyrene 100×20 mm dishes in 10 ml media. After overnight incubation at 37° C. with 5% CO2, the cells were treated with nothing (NT), staurosporine (ST, 1 μM) or erastin (20 μg/mL) for 6 h, washed with 10 mL ice-cold PBS and lysed by passage through a 25-gauge needle (five strokes). Cell lysates were centrifuged at 1850 rpm for 5 min at 4° C. to remove the nuclear fraction. Mitochondria were removed from the soluble cytosolic fraction by pelleting at 10,000 rpm. Supernatant and mitochondrial pellets were solubilized in SDS-PAGE loading buffer and analyzed by western blot using anti-cytochrome c and pan-VDAC antibodies and IR-dye-linked secondary antibodies. […] Fluorescence was detected on a LI-COR Odyssey infrared scanner.
(a) BJ-TERT/LT/ST/RAS^V12 cells were treated with 9 μM erastin A1 for the indicated length of time, and the number of viable cells determined. […] Red fluorescence resulting from reduction of alamar blue was detected on a Victor3 platereader. […] (e) The number of viable cells was quantified under each condition using a hemacytometer. […] BJ-TERT/LT/ST/RAS^V12 (shown in histogram plots, and in line graph as dark diamonds) or BJ-TERT cells (shown in line graph only, light circles) were treated with 4.6-μM erastin A1 and the level of intracellular oxidative species determined. […]

[2] = test system: BJ-TERT/LT/ST/RASV12 cells; test: Annexin V staining; conditions: erastin 9 μM; camptothecin 1 μM
Description: The percentage of cells in the indicated M1 region were 6%, 6%, and 38% in untreated, erastin-treated (9 μM), and camptothecin-treated (1 μM), respectively.

[3] = test system: PARP1; test: PARP1 cleavage, western blot; conditions: BJ-TERT/LT/ST/RAS^V12; staurosporine 1 μM 6 h, camptothecin 1 μM 18 h, erastin 20 μg/mL
Description: BJ-TERT/LT/ST/RAS^V12 tumor cells were seeded in six-well dishes, incubated overnight at 37° C. with 5% CO2 and were treated with nothing (NT), staurosporine (ST, 1 μM) for 6 h, camptothecin (C, 1 μM) for 18 h, or erastin (20 μg/mL) for the indicated time, lysed and analyzed by western blot with an anti-PARP1 antibody. A relatively high concentration of erastin was used to ensure loss of PARP cleavage was not due to a concentration-dependent effect.
For western blots, medium was aspirated, and each dish was washed twice with 10 mL of ice-cold PBS. Cells were lysed with 200 μL of buffer (50 mM HEPES, 40 mM NaCl, 2 mM EDTA, 0.5% Triton-X, 1.5 mM sodium orthovanadate, 50 mM NaF, 10 mM Na Pyrophosphate, 10 mM Na B-glycerophosphate and protease inhibitor tablet, pH 7.4). […]

[4] = test system: BJ-TERT/LT/ST/RASV12 cells; test: Nuclear morphology, fluorescence microscopy (Hoechst 33342)
Description: DNA was stained used Hoechst 33342.
To characterize the type of cell death induced by erastin, the effect of erastin was tested alongside camptothecin and staurosporine, which induce apoptotic cell death^39. Apoptosis is characterized by alterations in nuclear morphology, including pyknosis, karyorhexis and margination of chromatin^93. Nuclear morphology of camptothecin-treated and erastin-treated BJ-TERT/LT/ST/RAS^V12 cells was monitored using fluorescence microscopy. […] Apoptosis-inducing compounds (staurosporine and/or camptothecin) were tested alongside erastin in all of these assays to confirm the functionality of the assay. […] Therefore, in certain aspects the invention provides a genotype-selective anti-tumor agent which induces cell death via a non-apoptotic mechanism of oxidative cell death.

Row | Compound | cytochrome c release from mitochondria [1] | percentage of cells in the M1 region (Annexin V staining) [2] | PARP1 cleavage [3] | fragmented nuclei, of total nuclei ([4]; Hoechst 33342) | nuclear morphology ([4]; fluorescence microscopy)
1 | CN[C@@H]1C[C@H]2O[C@@](C)([C@@H]1OC)n1c3ccccc3c3c4c(c5c6ccccc6n2c5c31)C(=O)NC4 [staurosporine] | released from mitochondria | – | – | – | –
2 | CC[C@@]1(O)C(=O)OCc2c1cc1n(c2=O)Cc2cc3ccccc3nc2-1 [camptothecin] | – | 38% | degraded | 10%-20% | karyorhexis and margination of chromatin were visible
